# Legend:
# [1] = tested on: BRCA2-knockout DLD1 cells; assay: Clonogenic survival and dose-response survival with 8-azaadenosine; format: cell-based; conditions: DLD1 BRCA2-KO vs BRCA2-wildtype; 8 days clonogenic, 7 days dose-response
# From the text: (§1) FIG. 7. A. Clonogenic survival of Brca1-wildtype and Brca1-mutant (Δ11) MEFs exposed to 8-azaadenosine for 8 days. B. Dose-response survival curves of Brca1-wildtype and Brca1-mutant (Δ11) MEFs exposed to increasing concentrations of 8-azaadenosine for 7 days. C. Clonogenic survival of BRCA2-wildtype and BRCA2-knockout DLD1 cells exposed to 8-azaadenosine for 8 days. D. Dose-response survival curves of BRCA2-wildtype and BRCA2-knockout DLD1 cells exposed to increasing concentrations of 8-azaadenosine for 7 days. All graphs show median. Error bars represent Standard Deviation (SD).
# Brca1-mutant (Δ11) MEFs = assay: as above; format: cell-based, mouse; conditions: MEF Brca1-Δ11 vs Brca1-wildtype; 8 days clonogenic, 7 days dose-response
# From the text: as §1
smiles,measurement,setting,value
"Nc1ncnc2c1nnn2[C@@H]1O[C@H](CO)[C@@H](O)[C@H]1O [8-azaadenosine, 3-(β-D-Ribofuranosyl)-3H-[1,2,3]triazolo[4,5-d]pyrimidin-7-amine]","BRCA2 synthetic lethality (clonogenic survival, dose-response survival)",[1],BRCA2 synthetic lethality
same,"BRCA1 synthetic lethality (clonogenic survival, dose-response survival)",Brca1-mutant (Δ11) MEFs,elicited BRCA1 synthetic lethality

# Reference: patent publication US20260265832A1, “ADAR1 INHIBITORS FOR TREATING CANCER” (INSTITUE OF CANCER RESEARCH ROYAL CANCER HOSPITAL, priority 2023, published 2026)
